Like-named read-outs stand apart in the source and are kept apart here.
Columns and labels:
HIV-1 isolate K103N = test: Cytopathic cell killing assay, MT-4 cells, isolate K103N; format: cell-based
Text: (§1) The various HIV isolates tested in the Figures are those corresponding to wild-type virus (NL4-3) and the other strains listed by their RT mutations. The three 4×AZT isolates included in the Figures represent AZT drug-resistant variants. For example, the 4×AZT/L100I isolate has five mutations: four mutations confer increased resistance to AZT, and the other mutation is located within the NNRTI binding pocket. TZB and nevir. (nevirapine) are two well-known NNRTIs, included in this experiment for comparison purposes.
(§2) In this Example, the antiviral and cellular toxicity of NNRTIs was investigated, using the cytopathic cell killing assay described by Yang (Yang et al., “Characteristics of a Group of Non-nucleoside Reverse Transcriptase Inhibitors with Structural Diversity and Potent Anti-Human Immunodeficiency Virus Activity,” Leukemia 9:S75-S85 [1995]). Briefly, in this method cells (e.g., the CEM-SS cell line, available from the NIAID AIDS Research and Reference Program [ARRRP]) were seeded at a density of 5×10^3 cells/well, into the wells of a 96-well microtiter plate. The cells were then infected with HIV virus (either mutant or WT), at a multiplicity of infection (MOI) previously determined to provide complete cell killing by 6 days of culture post-infection (e.g., MOI of 0.01-0.05). Each of the HIV isolates was pre-titered to induce equivalent levels of infection based on cell killing or virus production, prior to their use in these assays. A range of test compound concentrations was added to the wells in triplicate (e.g., serial half-log dilutions) to evaluate inhibition of HIV infection. Controls for each assay included drug controls (drug colorimetric control wells), drug cytotoxicity control wells (cells with drug), virus control wells (cells with virus), and cell viability controls (cells only). Positive control drugs (e.g. AZT and ddC) were also run in parallel.
(§3) After six days of incubation at 37° C., cell viability was determined spectrophotometrically at 450 nm for each well, using the metabolic reduction of XTT to a soluble colored formazan. (See, Gartner and Popovic, “Virus Isolation and Production, in Aldovini and Walker (eds.), Techniques in HIV Research, Stockton Press, NY, pp. […] [1991]; and Nara and Fischinger, “Quantitative Infectivity Assay for HIV-1 and HIV-2, ” Nature 332:469-470 [1988]).
(§4) The in vitro therapeutic index (TI50) was defined as the fold-difference between the EC50 and IC50. The results for the various compounds are included in FIGS. 8 and 19.

HIV-1 NL4-3 (WT) = test: Cytopathic cell killing assay, MT-4 cells, isolate NL4-3 (WT); format: cell-based
Text: as §1, §2, §3, §4

HIV-1 isolate Y181C = test: Cytopathic cell killing assay, MT-4 cells, isolate Y181C; format: cell-based
Text: as §1, §2, §3, §4

HIV-1 WT virus (NL4-3) = test: microbe, parasite or virus in culture; format: cell-based; settings: for EC50: Human immunodeficiency virus 1, NL43, CEM-SS, read-out: EC50
Experimental: Evaluation of these compounds for the inhibition of HIV-1 was determined as the fifty percent cell culture inhibitory concentration (CIC50) in CEMSS cell culture with WT virus (NL4-3).
as §2, §3, §4

HIV-1 WT RT = HIV-1 WT RT (Human immunodeficiency virus type 1 group M subtype B, UniProt P03366); test: biochemical; format: biochemical
HIV-1 isolate L100I = test: Cytopathic cell killing assay, MT-4 cells, isolate L100I; format: cell-based
Text: as §1, §2, §3, §4

[1] = test system: WT and HIV-1 variants containing amino acid substitutions in RT; format: cell-based; settings: cytopathic cell killing assay, NNRTI-resistant HIV isolates
Text: In these Tables, antiviral data are reported as the quantity of drug in μM required to reduce cell killing or virus production by 50% (EC50). The various HIV isolates tested in the Figures are those corresponding to wild-type virus (NL4-3) and the other strains listed by their RT mutations. The three 4×AZT isolates included in the Figures represent AZT drug-resistant variants.
Briefly, in this method cells (e.g., the CEM-SS cell line, available from the NIAID AIDS Research and Reference Program [ARRRP]) were seeded at a density of 5×10^3 cells/well, into the wells of a 96-well microtiter plate. The cells were then infected with HIV virus (either mutant or WT), at a multiplicity of infection (MOI) previously determined to provide complete cell killing by 6 days of culture post-infection (e.g., MOI of 0.01-0.05). Each of the HIV isolates was pre-titered to induce equivalent levels of infection based on cell killing or virus production, prior to their use in these assays. A range of test compound concentrations was added to the wells in triplicate (e.g., serial half-log dilutions) to evaluate inhibition of HIV infection. Controls for each assay included drug controls (drug colorimetric control wells), drug cytotoxicity control wells (cells with drug), virus control wells (cells with virus), and cell viability controls (cells only). Positive control drugs (e.g. AZT and ddC) were also run in parallel.
as §3
Antiviral and toxicity data were reported as the quantity of drug required to inhibit 50% of virus-induced cell killing or virus production (EC50), and the quantity of drug required to […] (IC50). The in vitro therapeutic index (TI50) was defined as the fold-difference between the EC50 and IC50.

HIV-1 isolate A98G = test: Cytopathic cell killing assay, MT-4 cells, isolate A98G; format: cell-based; settings: Human immunodeficiency virus 1, MT4, read-out: EC50, isolate A98G, Table 8; MT-4 cells
Text: as §1, §2, §3, §4

HIV-1 isolate V179D = test: Cytopathic cell killing assay, MT-4 cells, isolate V179D; format: cell-based; settings: MT-4 cells
Text: as §1, §2, §3, §4

HIV-1 isolate K101E = test: Cytopathic cell killing assay, MT-4 cells, isolate K101E; format: cell-based; settings: Human immunodeficiency virus 1, MT4, read-out: EC50, isolate K101E, Table 8; MT-4 cells
Text: as §1, §2, §3, §4

[2] = Table 7, drug concentration required to reduce cell killing or virus production by 50%, WT
[3] = Table 11, CEMSS/NL4-3, NRVC = no reduction in viral CPE
[4] = Table 7, 1 μM drug, WT HIV-1 RT

With `CN(C)c1cccc2c1nc(-c1c(F)cccc1F)n2Cc1c(F)cccc1F` [Compound 3700, 1-(2,6-difluorobenzyl)-2-(2,6-difluorophenyl)-4-N,N-dimethylaminobenzimidazole] the EC50 (HIV-1 isolate K103N; Human immunodeficiency virus 1, MT4, read-out: EC50, isolate K103N, Table 10, values in μM) was greater than 100 µM, the EC50 (HIV-1 NL4-3 (WT); Human immunodeficiency virus 1, NL43, MT4, Table 10, values in μM, read-out: EC50, isolate NL4-3 (WT)) was 2.88 µM and the EC50 (HIV-1 isolate Y181C; Human immunodeficiency virus 1, MT4, read-out: EC50, isolate Y181C, Table 10, values in μM) was greater than 100 µM. It also gave an EC50 (HIV-1 WT virus (NL4-3); [2]) of 2370 nM, an EC50 (HIV-1 WT virus (NL4-3); [3]) of 2370 nM and an inhibition at 1 µM (HIV-1 WT RT; Table 7, 1 μM drug, WT HIV-1 RT, read-out: % inhibn (1 μM)) of 77%. The IC50 (HIV-1 WT RT; read-out: IC50) was 40000 nM, the melting point was 155 to 156 °C and the EC50 (HIV-1 isolate L100I; Human immunodeficiency virus 1, MT4, read-out: EC50, isolate L100I, Table 10, values in μM) was 31.6 µM.

For `CC(=O)N(C)c1cccc2c1nc(-c1c(F)cccc1F)n2Cc1c(F)cccc1F` [Compound 5011, 1-(2,6-difluorobenzyl)-2-(2,6-difluorophenyl)-4-(N-methylacetamido)benzimidazole], the “cross-resistance profile, result in words” value (“cross-resistance profile” for short) ([1]; listed as N-methyl acetamido) was “inhibit HIV-1 better than TZB”, the “cross-resistance profile” value ([1]; listed as N-methylacetamido) was “equal or better against the various variants than nevirapine” and the EC50 (HIV-1 WT virus (NL4-3); [2]) was 20 nM. For the same compound, the EC50 (HIV-1 WT virus (NL4-3); text b130, cytopathic cell killing assay, WT) was 20 nM, the “fold more potent than the 4-methyl or 4-amino compounds (EC50)” value (HIV-1 WT virus (NL4-3); cytopathic cell killing assay) was 20 fold and the EC50 (HIV-1 isolate A98G) was 100 nM. For the same compound, the IC50 (HIV-1 WT RT) was 320 nM, the “% inhibn (1 μM)” value (HIV-1 WT RT; [4]) was 77% and the melting point was 155 to 156 °C.

With `CNc1cccc2c1nc(-c1c(F)cccc1F)n2Cc1c(F)cccc1F` [Compound 5012, 1-(2,6-difluorobenzyl)-2-(2,6-difluorophenyl)-4-(N-methylamino)benzimidazole] the EC50 (HIV-1 isolate V179D; Human immunodeficiency virus 1, MT4, read-out: EC50, isolate V179D, Table 8) was 3800 nM, the “cross-resistance profile” value [1] was “inhibit HIV-1 better than TZB” and the “inhibitory potency against HIV-1 (CIC50), result in words” value (HIV-1 WT virus (NL4-3); CEMSS cell culture, WT virus (NL4-3), relative to parent compounds 1 and 2) was “significantly poorer inhibitors”. For the same compound, the EC50 (HIV-1 WT virus (NL4-3); [2]) was 1700 nM, the EC50 (HIV-1 WT virus (NL4-3); [3]) was 1700 nM and the IC50 (HIV-1 WT RT) was 4940 nM. The “% inhibn (1 μM)” value (HIV-1 WT RT; [4]) was 24%.

With `Nc1cccc2c1nc(-c1c(F)cccc1F)n2Cc1c(F)cccc1F` [Example 53] the EC50 (HIV-1 WT virus (NL4-3); [3]) was 460 nM, the IC50 (HIV-1 WT RT; Table 11, WT RT, read-out: IC50) was 280 nM and the melting point was 139 to 141 °C.

`CC1Cn2c(=O)[nH]c3cccc(c32)CN1` (centres unmarked) [TIBO, 4,5,6,7-tetrahydro-5-methylimidazo[4,5,1-jk][1,4]benzodiazepin-2(1H)-one, reference compound] showed an EC50 (HIV-1 isolate L100I; Human immunodeficiency virus 1, MT4, read-out: EC50, isolate L1001, Table 4, MT-4 cells) of no less than 17.4 µM.

With `Cc1ccnc2c1NC(=O)c1cccnc1N2C1CC1` [nevir., nevirapine, reference compound] the “activity against K103N, result in words” value (HIV-1 isolate K103N; cytopathic cell killing assay) was “ineffective”, the EC50 (HIV-1 NL4-3 (WT); Human immunodeficiency virus 1, NL43, MT4, Table 8, MT-4 cells, read-out: EC50, isolate NL4-3) was 0.04 µM and the EC50 (HIV-1 isolate V179D; Human immunodeficiency virus 1, MT4, read-out: EC50, isolate V179D, Table 9) was 200 nM. For the same compound, the EC50 (HIV-1 isolate Y181C; Human immunodeficiency virus 1, MT4, read-out: EC50, isolate Y181C, Table 8, MT-4 cells) was 4.9 µM, the EC50 (HIV-1 isolate K101E) was 1100 nM and the EC50 (HIV-1 WT virus (NL4-3); [3]) was 35 nM.

Source: patent US6894068B2, “Substituted benzimidazoles as non-nucleoside inhibitors of reverse transcriptase” (The United States of America as represented by the …, priority 1997, dated 2005)
